Bounds are passed on as bounds.

One experiment concerns A549 cells. Briefly: Sulforhodamine B (SRB) assay, A549. It counts as cell-based. The following applies: Homo sapiens; A549 cells, SRB, 48 h; read-out: GI50 con. ± SEM A549. The method, then:
(§1) The A549 and PC-3 human lung and prostate cancer cell lines were acquired from the American Type Culture Collection (Rockville, MD). […] The cultures were kept in a 37 °C incubator with 5% CO2. When the adherent cultures reached 80% confluence, they were passaged using 0.05% trypsin-EDTA. PC-3 and A549 cells were seeded into 96-well plates in RPMI medium with 5% (v/v) foetal bovine serum for 24 h. Cells in partial wells were fixed with 10% trichloroacetic acid (TCA) to represent the initial time of compound treatment. The cells were treated with or without the indicated compound for 48 h and then were fixed with 10% TCA. After the washout with ddH2O and air-dried, SRB at 0.4% (w/v) in 1% acetic acid was added for staining. Unbound SRB was washed with 1% acetic acid and SRB-bounded cells were solubilised with 10 mM Tris base. The absorbance was read at a wavelength of 515 nm for the determination of cell growth.
Background: Sulforhodamine B stains cellular protein and so reports cell mass.

In the next experiment the test system is PC-3 cells. The experiment can be described thus: Sulforhodamine B (SRB) assay, PC-3. Format: cell-based. The following applies: Homo sapiens; PC-3 cells, SRB, 48 h; read-out: GI50 con. ± SEM PC-3. On the procedure:
as §1

The target of a further experiment is T1, HDAC6 (Homo sapiens, UniProt Q9UBN7).
T1 sequence (Q9UBN7 1-1215): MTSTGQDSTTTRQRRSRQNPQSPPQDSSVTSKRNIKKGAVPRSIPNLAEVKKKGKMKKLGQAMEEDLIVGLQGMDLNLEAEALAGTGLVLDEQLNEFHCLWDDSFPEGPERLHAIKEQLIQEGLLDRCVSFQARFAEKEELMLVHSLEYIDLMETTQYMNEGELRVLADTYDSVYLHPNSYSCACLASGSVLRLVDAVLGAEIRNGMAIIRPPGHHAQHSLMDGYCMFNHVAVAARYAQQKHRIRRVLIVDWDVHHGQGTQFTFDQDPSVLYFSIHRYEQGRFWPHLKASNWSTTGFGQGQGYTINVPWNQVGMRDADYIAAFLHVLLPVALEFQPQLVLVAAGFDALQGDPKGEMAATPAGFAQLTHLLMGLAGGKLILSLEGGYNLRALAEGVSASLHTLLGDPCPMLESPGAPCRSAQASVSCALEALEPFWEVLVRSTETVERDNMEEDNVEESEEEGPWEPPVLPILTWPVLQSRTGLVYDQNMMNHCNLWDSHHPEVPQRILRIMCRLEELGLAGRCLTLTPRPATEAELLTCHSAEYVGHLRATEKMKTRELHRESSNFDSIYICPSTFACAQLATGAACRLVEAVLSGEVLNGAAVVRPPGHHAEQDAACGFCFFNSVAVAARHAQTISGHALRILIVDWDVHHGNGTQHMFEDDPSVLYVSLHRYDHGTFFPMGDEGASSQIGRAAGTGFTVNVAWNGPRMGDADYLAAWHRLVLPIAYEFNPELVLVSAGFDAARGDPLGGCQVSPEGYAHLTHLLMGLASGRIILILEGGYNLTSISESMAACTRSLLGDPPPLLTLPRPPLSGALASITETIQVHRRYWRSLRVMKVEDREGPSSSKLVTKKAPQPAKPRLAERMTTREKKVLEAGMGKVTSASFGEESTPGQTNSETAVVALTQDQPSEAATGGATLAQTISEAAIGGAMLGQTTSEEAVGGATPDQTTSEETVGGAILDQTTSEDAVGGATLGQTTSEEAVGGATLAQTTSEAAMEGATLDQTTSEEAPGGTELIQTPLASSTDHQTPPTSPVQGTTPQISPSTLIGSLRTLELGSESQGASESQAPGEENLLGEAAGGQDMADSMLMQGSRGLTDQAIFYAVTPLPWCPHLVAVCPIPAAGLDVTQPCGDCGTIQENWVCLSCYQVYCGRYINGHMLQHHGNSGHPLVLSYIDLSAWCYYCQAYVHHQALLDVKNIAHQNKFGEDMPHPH
Briefly: HDAC enzyme activity assay (Reaction Biology), HDAC6. Format: biochemical. On the set-up: Full-length recombinant hHDAC 6 was expressed in a baculovirus expression system in SF9 cells; purchased Reaction Biology Corporation (Malvern, PA); host or cells: baculovirus / SF9 insect cells. Conditions: for IC50: full-length recombinant hHDAC 6, RHKKAc substrate 50 μM, 2 h at 30 °C; for HDAC1/6 Selectivity: ratio of HDAC1 IC50 to HDAC6 IC50. The method, then: HDAC inhibition assays were performed by Reaction Biology Corporation (Malvern, PA). Full-length recombinant hHDAC 6 was expressed in a baculovirus expression system in SF9 cells. […] The reaction was stopped after 2 h at 30 °C . Trichostatin A was used as an internal control.

The target in the next experiment is T2, HDAC1 (Homo sapiens, UniProt Q13547).
T2 construct: purchased Reaction Biology Corporation (Malvern, PA)
The experiment can be described thus: HDAC enzyme activity assay (Reaction Biology), HDAC1. It counts as biochemical.

T2 sequence (Q13547 whole entry): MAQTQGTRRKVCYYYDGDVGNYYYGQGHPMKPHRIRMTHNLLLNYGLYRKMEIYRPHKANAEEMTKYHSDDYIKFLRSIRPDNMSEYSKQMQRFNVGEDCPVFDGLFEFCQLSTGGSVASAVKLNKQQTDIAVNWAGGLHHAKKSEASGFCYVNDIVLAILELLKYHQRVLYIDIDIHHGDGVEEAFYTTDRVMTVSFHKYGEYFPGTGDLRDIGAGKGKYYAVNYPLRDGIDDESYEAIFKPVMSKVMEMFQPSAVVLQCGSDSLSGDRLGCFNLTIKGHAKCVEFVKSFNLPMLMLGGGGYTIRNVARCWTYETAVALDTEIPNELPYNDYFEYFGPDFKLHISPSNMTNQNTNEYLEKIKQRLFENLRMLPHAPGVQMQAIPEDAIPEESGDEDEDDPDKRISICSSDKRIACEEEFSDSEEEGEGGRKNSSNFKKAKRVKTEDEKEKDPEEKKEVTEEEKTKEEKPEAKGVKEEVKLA

On to `O=C(NO)c1ccc(Cn2c(=O)n(CCCCCn3c(=O)c4ccccc4n(Cc4ccc(C(=O)NO)cc4)c3=O)c(=O)c3ccccc32)cc1` [Compound 8c, 4-{[3-(5-{1-[(4-Hydroxamophenyl)methyl]-2,4-dioxoquinazolin-3-yl}pentyl)-2,4-dioxoquinazolin-1-yl]methyl}benzohydroxamic acid], for which the GI50 in the experiment with A549 cells and with PC-3 cells was over 30 µM throughout. Moreover, on HDAC6, the IC50 amounted to 0.027 µM.
Take `O=C(NO)c1ccc(CNc2ccccc2C(=O)NCCCCCNC(=O)c2ccccc2NCc2ccc(C(=O)NO)cc2)cc1` [Compound 11c]: the GI50 is 6.6 ± 0.1 µM with A549 cells and 8.2 ± 0.1 µM in the experiment on PC-3 cells. Further, the figures for the IC50 at HDAC1 and at HDAC6 were 1.46 µM and 0.015 µM, respectively. Moreover, the “HDAC1/6 Selectivity” value on HDAC6 is 95.
As to `O=C(NO)c1ccc(Cn2c(=O)n(CCc3ccccc3)c(=O)c3cc(NCCOCCOCCOCCNc4ccc5c(c4)c(=O)n(CCc4ccccc4)c(=O)n5Cc4ccc(C(=O)NO)cc4)ccc32)cc1` [Compound 4a, 4-{[6-(2-{2-[2-(2-{1-[(4-Hydroxamophenyl)methyl]-2,4-dioxo-3-phenethylquinazolin-6-ylamino}ethoxy)ethoxy]ethoxy}ethylamino)-2,4-dioxo-3-phenethylquinazolin-1-yl]methyl}benzohydroxamic acid], the GI50 in the experiment with A549 cells and in the experiment on PC-3 cells was over 30 µM throughout. For the same compound, the half-maximal inhibitory concentration (IC50) on HDAC6 is 0.092 µM.
As for `O=C(NO)c1ccc(Cn2c(=O)n(CCOCCOCCn3c(=O)c4ccccc4n(Cc4ccc(C(=O)NO)cc4)c3=O)c(=O)c3ccccc32)cc1` [Compound 8b, 4-[(3-{2-[2-(2-{1-[(4-Hydroxamophenyl)methyl]-2,4-dioxoquinazolin-3-yl}ethoxy)ethoxy]ethyl}-2,4-dioxoquinazolin-1-yl)methyl]benzohydroxamic acid], the concentration for 50% growth inhibition (GI50) in the experiment with A549 cells and in the experiment on PC-3 cells was over 30 µM each time. Also, the IC50 on HDAC1 came out at 3.19 µM; at HDAC6, 0.002 µM. Further, the “HDAC1/6 Selectivity” value at HDAC6 was 1386.
Turning to `O=C(NO)c1ccc(Cn2c(=O)n(CCc3ccccc3)c(=O)c3cc(NCCCCCNc4ccc5c(c4)c(=O)n(CCc4ccccc4)c(=O)n5Cc4ccc(C(=O)NO)cc4)ccc32)cc1` [Compound 4c, 4-{[6-(5-{1-[(4-Hydroxamophenyl)methyl]-2,4-dioxo-3-phenethylquinazolin-6-ylamino}pentylamino)-2,4-dioxo-3-phenethylquinazolin-1-yl]methyl}benzohydroxamic acid], the GI50 in the experiment with A549 cells is over 30 µM; in the experiment on PC-3 cells, 21.4 ± 0.3 µM. Also, the IC50 at HDAC6 came to 0.096 µM.
Regarding `O=C(NO)c1ccc(CNc2ccccc2C(=O)NCCOCCOCCOCCNC(=O)c2ccccc2NCc2ccc(C(=O)NO)cc2)cc1` [Compound 11a], the results for the GI50 in the experiment on A549 cells and in the experiment on PC-3 cells were 17.3 ± 0.2 µM and 5.9 ± 0.7 µM, respectively. The IC50 on HDAC1 amounted to 2.6 µM; on HDAC6, 0.004 µM. Besides, the “HDAC1/6 Selectivity” value on HDAC6 was 577.
The like results for `O=C(NO)c1ccc(Cn2c(=O)n(CCc3ccccc3)c(=O)c3cc(NCCOCCOCCNc4ccc5c(c4)c(=O)n(CCc4ccccc4)c(=O)n5Cc4ccc(C(=O)NO)cc4)ccc32)cc1` [Compound 4b, 4-[(6-{2-[2-(2-{1-[(4-Hydroxamophenyl)methyl]-2,4-dioxo-3-phenethylquinazolin-6-ylamino}ethoxy)ethoxy]ethylamino}-2,4-dioxo-3-phenethylquinazolin-1-yl)methyl]benzohydroxamic acid] were, in that order, over 30 µM, over 30 µM, over 10 µM, 0.816 µM and over 12.
For `O=C(NO)c1ccc(CNc2ccccc2C(=O)NCCOCCOCCNC(=O)c2ccccc2NCc2ccc(C(=O)NO)cc2)cc1` [Compound 11b] the same measures were 17.9 ± 0.4 µM, 11.3 ± 0.2 µM, 1.27 µM, 0.003 µM and 326.

In general, GI50 refers to the concentration at which growth is held to half of that of the control. One may read the IC50 as the point on the concentration scale where inhibition reaches its midpoint.

The values are drawn from PMC11869342, “Design and synthesis of novel HDAC6 inhibitor dimer as HDAC6 degrader for cancer treatment by palladium catalysed dimerisation” (Journal of Enzyme Inhibition and Medicinal Chemistry, 2025).
